Literature values, collected in US20100215746A1, “PREVENTION OF CISPLATIN INDUCED DEAFNESS” (THE REGENTS OF THE UNIVERSITY OF MICHIGAN, priority 2002, published 2010).

Key:
[1] = system: neuropathic and ototoxic effects of cisplatin; conditions: co-administration with cisplatin
[2] = system: hearing; conditions: human, in vivo

Row | Compound | effectiveness in ameliorating neuropathic and ototoxic effects of cisplatin [1] | reported incidence of cisplatin-induced hearing loss [2]
1 | NCCCNCCSP(=O)(O)O [amifostine] | does not appear to be effective | 
2 | N.N.[Cl][Pt][Cl] [cisplatin] |  | 9-90%
